Results taken from article PMC5688848 (Bioorganic & medicinal chemistry, 2016).
Ends that are not written are not given here.

Assays:
[1] = biological target: His-REV7(R124A)/biotin-AviTag-REV3L(1846–1898) complex (Homo sapiens, UniProt Q9UI95, R124A); assay: Pull-down assay on streptavidin-conjugated agarose beads; format: binding; conditions: compound 50 μM, complex 1 μM, 4°C 20 h
[2] = biological target: His-REV7(R124A)/REV3L(1847–1898) complex (Homo sapiens, UniProt Q9UI95, R124A); assay: Thermal shift assay; format: binding; conditions: compound 500 μM, protein 5 μM, 4 h at room temperature
His-REV7(R124A)/REV3L(1847–1898) complex, sequence (Q9UI95 whole entry R124A, one chain of several): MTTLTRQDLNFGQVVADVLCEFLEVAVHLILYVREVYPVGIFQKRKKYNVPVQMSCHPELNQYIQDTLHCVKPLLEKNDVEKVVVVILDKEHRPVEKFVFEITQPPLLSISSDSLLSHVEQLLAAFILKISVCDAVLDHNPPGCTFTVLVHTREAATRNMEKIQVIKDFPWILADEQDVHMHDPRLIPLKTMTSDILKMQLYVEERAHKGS

HeLa cells [3] = assay: Cisplatin sensitization by the clonogenic survival assay; format: cell-based; conditions: cisplatin 24 h then compound 75 μM 24 h, 6 more days
HeLa cells [4] = assay: Cell toxicity assay; format: cell-based; conditions: 75 μM, 3 days
ICLR in COS7 cells = assay: ICL repair assay; format: cell-based; conditions: 75 μM
[5] = biological target: T1, hexahistidine (His)-REV7(R124A) (UniProt Q9UI95 1-211, R124A); assay: AlphaScreen or HTRF
T1 sequence (Q9UI95 whole entry R124A): as the sequence (Q9UI95 whole entry R124A, one chain of several) above

[6] = biological target: T1, hexahistidine (His)-REV7(R124A); assay: AlphaScreen or HTRF; remark: listed apart in the source

His-REV7(R124A)/biotin-AviTag-REV3L(1846–1898) complex, sequence (Q9UI95 whole entry R124A, one chain of several): as above

Molecule: CC(=O)N1CCC(Cn2cnc3scc(-c4ccco4)c3c2=O)CC1 [compound 1]
- Isolation of His-REV7(R124A) on streptavidin beads (complex dissociation) [1]: significantly inhibited
- Shift in the denaturation point of the His-REV7(R124A)/REV3L(1847–1898) complex [2]: clear shift in the denaturation point

Molecule: CC(=O)N1CCC(Cn2cnc3scc(-c4ccc(C)o4)c3c2=O)CC1 [compound 7]
- Normalized number of colonies (clonogenic survival) versus cisplatin only (HeLa cells [3]): lesser
- Viability / growth of HeLa cells (alamarBlue), normalized by DMSO (HeLa cells [4]): decreased HeLa cell growth but did not completely eliminate the cells
- ICLR activity (luciferase activity of ICL plasmid normalized to non-ICL plasmid) (ICLR in COS7 cells): suppressed luciferase activity

Molecule: ANILKPLMSPPSREEIMATLL-biotin [C-terminal biotin-tagged REV3L(1875–1895) peptide]
- binding result [5]: binds

Molecule: ANILKPLMSPPSREEIMATLL [non-tagged REV3L(1875–1895) peptide]
- IC50 [6]: 80 nM
